Experimental findings from patent publication US20040186129A1, “2-Aroylimidazole compounds for treating cancer” (priority 2001, published 2004) are described below.

One experiment relates to H2. The experiment is described as follows: In vitro anti-cancer activity, MTS assay, 72 hours. The format is cell-based. To be noted: Homo sapiens, H2, 72 hours. The procedure: (§1) The in vitro activity of the compounds was determined in the following seven human cancer cell lines. MDA435 (human breast cancer), MIP10 (human colon cancer), HL-60 (human myeloid leukemia), U937 (human leukemia), p388 (murine leukemia), DU-145 (human prostate cancer), MES-SA (human uterine sarcoma) were obtained from ATCC (American Type of Culture Collection).
(§2) The cell lines were maintained in RPMI1640(GIBCO) supplemented with 10% FCS, 100 units/ml penicillin, 100 ug/ml streptomycin, and 2 mM L-glutamine. The cells were split every third day and diluted to a concentration of 2×10^5 cells/ml one day before experiment. All experiments were performed on exponentially growing cell culture. Cell densities were 2.5×10^4 cells/ml in all experiment.
(§3) A stock solution of Compound (1) was prepared by dissolving the compound at a concentration of 1 mM in 100% DMSO. Final concentrations were obtained by diluting the stock solution directly into the tissue culture medium. Cells were incubated with varying concentrations of the compounds for 72 hours and the IC50 was determined by MTS (i.e. […]) assay. IC50 stands for the concentration of compound required to inhibit 50% tumor cell growth.

Another experiment concerns DU-145. The experiment is described as follows: In vitro anti-cancer activity, MTS assay, 72 hours. The format is cell-based. To be noted: Homo sapiens, DU-145, 72 hours. As to the method:
as §1, §2, §3
In general terms: Formazan colour is commonly taken as a measure of viable cells.

Another experiment deals with HL-60. The experiment is described as follows: In vitro anti-cancer activity, MTS assay, 72 hours. It is filed as cell-based. The note with it: Homo sapiens, HL-60, 72 hours. The procedure: as §1, §2, §3
In another experiment the test system is MES-SA. The experiment is described as follows: In vitro anti-cancer activity, MTS assay, 72 hours. It is filed as cell-based. The note with it: Homo sapiens. The procedure:
as §1, §2, §3

In the next experiment the test system is MDA-435. The experiment is described as follows: In vitro anti-cancer activity, MTS assay, 72 hours. The note with it: Homo sapiens, MDA435, MDA-435, 72 hours. It is filed as cell-based. As to the method:
as §1, §2, §3

The subject of the next experiment is A549. The experiment is described as follows: In vitro anti-cancer activity, MTS assay, 72 hours. It is filed as cell-based. The note with it: Homo sapiens, A549, 72 hours.
The subject of a further experiment is p388. Nature of the experiment: In vitro anti-cancer activity, MTS assay, 72 hours. The format is cell-based, murine. To be noted: Mus musculus, p388, 72 hours. As to the method: as §1, §2, §3
The test system of experiment [1] is MDR cell lines (MES-SA/DX5, HL-60/TX1000). The experiment is described as follows: In vitro anti-cancer activity, summary over both MDR cell lines. The note with it: MES-SA/DX5 and HL-60/TX1000, in words. The format is cell-based, human. As to the method:
as §2, §3
In vitro activity was determined in two MDR (Multi Drug Resistant) human cancer cell lines. HL-60/TX1000 was isolated in vitro by subculturing HL-60 in progressively higher concentration of Taxol. HL-60/TX1000 cells over-express mdr-1 mRNA and p-glycoprotein, as determined by western blot and immunofluorescence labeling with antiPGP antibodies. The cell is cross-resistant to Taxol, Vincristine, Adriamycin, Etoposide and Doxorubicin. […]

The test system of a further experiment is seven cancer cell lines. Nature of the experiment: In vitro anti-cancer activity, summary over seven cancer cell lines. The format is cell-based. The note with it: range over the seven cell lines of Table 1; read-out: IC50 against seven cancer cell lines. As to the method:
as §1, §2, §3

A further experiment relates to MES-SA/DX5. The experiment is described as follows: In vitro anti-cancer activity against multi-drug resistant cancer cells, MTS assay. It is filed as cell-based. To be noted: Homo sapiens, MES-SA/Dx5; MES-SA/DX-5, Table 2; read-out: IC50. The procedure: as §2, §3
(§4) In vitro activity was determined in two MDR (Multi Drug Resistant) human cancer cell lines. HL-60/TX1000 was isolated in vitro by subculturing HL-60 in progressively higher concentration of Taxol. HL-60/TX1000 cells over-express mdr-1 mRNA and p-glycoprotein, as determined by western blot and immunofluorescence labeling with antiPGP antibodies. The cell is cross-resistant to Taxol, Vincristine, Adriamycin, Etoposide and Doxorubicin. MES-SA/Dx5 was established in the presence of increasing concentrations of Doxorubicin. […] MES-SA/Dx5 was purchased from ATCC.
(§5) The procedure for culturing the cells and assaying cancer cell growth inhibition were as described in Example 12.
(§6) The protocol described in Examples 12-13 was used to assay inhibition by Compound (2)-(12) on the growth of the multidrug resistant cancer cell line MES-SA/DX5 and HL-60/TX1000.

The next experiment relates to HL-60/TX1000. The experiment is described as above. The format is cell-based. The note with it: Homo sapiens, HL60/TX1000; HL-60/TX1000, Table 2; read-out: IC50. As to the method: as §2, §3, §4, §5, §6

The IC50 is the concentration that inhibits the measured activity by half. Take `O=C(c1nc2cnccc2[nH]1)c1cn(Cc2ccc(Cl)cc2)c2ccccc12` [Compound (1)]: the IC50 with H2 is 50 nM; in the experiment with DU-145 it was 50 nM; in the experiment with HL-60, 50 nM; in the experiment on MES-SA, 10 nM; in the experiment on MDA-435 it was 50 nM; in the experiment with A549, 50 nM. In addition, the IC50 was 50 nM in the experiment on p388, 10 to 50 nM in the experiment with seven cancer cell lines, 50 nM in the experiment on MES-SA/DX5 and 50 nM in the experiment on HL-60/TX1000. The “anti-cancer activity against MDR cancer cell lines” value in experiment [1] was “high anti-cancer activity”.
